Counter-ions that a name gives are not always drawn.
Key:
Format in all cases: biochemical
[1] = molecular target: T1, recombinant human Lysyl Oxidase-Like 2 (LOXL2) (Homo sapiens, UniProt Q9Y4K0); assay: Amplex Red HRP-coupled amine oxidase assay, recombinant human LOXL2; settings: 60 min incubation with enzyme at 37° C., putrescine substrate, read-out: Inhibitory activity (IC50, nM) human LOXL2
T1 construct: purchased R&D systems
T1 sequence (Q9Y4K0 26-774): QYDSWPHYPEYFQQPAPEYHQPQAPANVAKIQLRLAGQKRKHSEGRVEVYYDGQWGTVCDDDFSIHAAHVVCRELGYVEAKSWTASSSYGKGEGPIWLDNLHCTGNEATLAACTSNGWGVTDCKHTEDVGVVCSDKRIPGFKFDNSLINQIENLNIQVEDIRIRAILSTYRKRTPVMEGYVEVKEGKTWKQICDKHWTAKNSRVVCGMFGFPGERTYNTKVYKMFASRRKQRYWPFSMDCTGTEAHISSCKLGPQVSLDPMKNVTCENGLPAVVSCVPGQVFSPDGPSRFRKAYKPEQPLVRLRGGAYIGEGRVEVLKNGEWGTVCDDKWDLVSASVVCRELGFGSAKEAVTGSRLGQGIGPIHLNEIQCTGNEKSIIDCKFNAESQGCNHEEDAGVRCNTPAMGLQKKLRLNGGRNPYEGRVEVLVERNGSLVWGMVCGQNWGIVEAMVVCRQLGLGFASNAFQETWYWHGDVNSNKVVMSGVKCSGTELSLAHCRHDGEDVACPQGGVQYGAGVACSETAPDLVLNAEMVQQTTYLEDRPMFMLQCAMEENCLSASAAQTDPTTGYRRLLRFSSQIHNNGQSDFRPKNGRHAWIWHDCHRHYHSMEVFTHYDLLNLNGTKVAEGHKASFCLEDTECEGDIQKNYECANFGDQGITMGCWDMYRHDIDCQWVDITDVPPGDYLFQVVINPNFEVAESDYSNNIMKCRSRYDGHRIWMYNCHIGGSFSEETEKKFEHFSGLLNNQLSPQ
In short: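 Putrescine substrate (30 mM) in 50 mM sodium phosphate pH 7.4, 37 °C; compounds preincubated 60 min with enzyme, 1% DMSO final, six-point curves. H2O2 detected via 400 μM Amplex Red/2 U/mL HRP, fluorescence (ex 530/em 590 nm) after 1 h; IC50 from four-parameter logistic fit of % signal reduction.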

[2] = molecular target: T2, recombinant human MAO-A (monoamine oxidase-A) (Homo sapiens, UniProt P21397); assay: Amplex Red HRP-coupled amine oxidase assay, recombinant human MAO-A; settings: 0.5 mM tyramine substrate, read-out: Inhibitory activity (IC50, nM) MAO-A
T2 construct: purchased Sigma-Aldrich
T2 sequence (P21397 1-527): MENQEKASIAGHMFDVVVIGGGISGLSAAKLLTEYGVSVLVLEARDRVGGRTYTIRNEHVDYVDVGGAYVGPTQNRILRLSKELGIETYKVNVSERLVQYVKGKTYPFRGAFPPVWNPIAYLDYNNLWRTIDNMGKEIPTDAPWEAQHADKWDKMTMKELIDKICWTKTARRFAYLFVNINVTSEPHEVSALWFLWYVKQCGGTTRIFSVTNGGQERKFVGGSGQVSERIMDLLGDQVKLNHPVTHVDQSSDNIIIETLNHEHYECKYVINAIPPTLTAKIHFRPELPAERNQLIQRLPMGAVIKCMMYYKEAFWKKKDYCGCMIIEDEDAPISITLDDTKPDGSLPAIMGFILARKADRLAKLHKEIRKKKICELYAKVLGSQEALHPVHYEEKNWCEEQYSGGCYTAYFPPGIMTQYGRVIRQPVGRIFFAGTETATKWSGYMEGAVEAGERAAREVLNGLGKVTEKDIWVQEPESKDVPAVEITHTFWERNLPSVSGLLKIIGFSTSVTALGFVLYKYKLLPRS
In short: (§1)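 Enzyme preincubated 60 min at 37 °C with compound (six-point curve, 1% DMSO final) in 50 mM sodium phosphate pH 7.4, then Amplex Red 400 μM and HRP 2 U/mL added with substrate: MAO-A 0.5 mM tyramine, MAO-B 1 mM benzylamine, DAO 1 mM putrescine. Resorufin fluorescence read after 1 h; IC50 by four-parameter logistic fit.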

[3] = molecular target: T3, recombinant human MAO-B (monoamine oxidase-B) (Homo sapiens, UniProt P27338); assay: Amplex Red HRP-coupled amine oxidase assay, recombinant human MAO-B; settings: 1 mM benzylamine substrate, read-out: Inhibitory activity (IC50, nM) MAO-B
T3 construct: purchased Sigma-Aldrich
T3 sequence (P27338 1-520): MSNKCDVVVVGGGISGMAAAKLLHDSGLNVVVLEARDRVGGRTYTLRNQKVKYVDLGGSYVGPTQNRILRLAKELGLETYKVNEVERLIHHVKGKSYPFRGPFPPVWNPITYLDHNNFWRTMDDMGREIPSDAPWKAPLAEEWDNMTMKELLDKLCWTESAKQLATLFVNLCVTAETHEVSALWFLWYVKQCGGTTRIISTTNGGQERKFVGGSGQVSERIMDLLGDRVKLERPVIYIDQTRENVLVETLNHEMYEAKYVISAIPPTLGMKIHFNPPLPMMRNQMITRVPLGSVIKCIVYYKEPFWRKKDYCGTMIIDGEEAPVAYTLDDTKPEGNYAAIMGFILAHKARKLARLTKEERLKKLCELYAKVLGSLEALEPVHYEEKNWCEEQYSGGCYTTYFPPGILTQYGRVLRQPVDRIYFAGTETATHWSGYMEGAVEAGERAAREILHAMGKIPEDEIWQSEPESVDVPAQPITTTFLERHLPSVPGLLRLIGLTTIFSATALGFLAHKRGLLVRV
In short: as §1

[4] = molecular target: T4, recombinant human DAO (diamine oxidase) (Homo sapiens, UniProt P19801); assay: Amplex Red HRP-coupled amine oxidase assay, recombinant human DAO; settings: 1 mM putrescine substrate, read-out: Inhibitory activity (IC50, nM) DAO
T4 construct: purchased R&D systems
T4 sequence (P19801 20-751): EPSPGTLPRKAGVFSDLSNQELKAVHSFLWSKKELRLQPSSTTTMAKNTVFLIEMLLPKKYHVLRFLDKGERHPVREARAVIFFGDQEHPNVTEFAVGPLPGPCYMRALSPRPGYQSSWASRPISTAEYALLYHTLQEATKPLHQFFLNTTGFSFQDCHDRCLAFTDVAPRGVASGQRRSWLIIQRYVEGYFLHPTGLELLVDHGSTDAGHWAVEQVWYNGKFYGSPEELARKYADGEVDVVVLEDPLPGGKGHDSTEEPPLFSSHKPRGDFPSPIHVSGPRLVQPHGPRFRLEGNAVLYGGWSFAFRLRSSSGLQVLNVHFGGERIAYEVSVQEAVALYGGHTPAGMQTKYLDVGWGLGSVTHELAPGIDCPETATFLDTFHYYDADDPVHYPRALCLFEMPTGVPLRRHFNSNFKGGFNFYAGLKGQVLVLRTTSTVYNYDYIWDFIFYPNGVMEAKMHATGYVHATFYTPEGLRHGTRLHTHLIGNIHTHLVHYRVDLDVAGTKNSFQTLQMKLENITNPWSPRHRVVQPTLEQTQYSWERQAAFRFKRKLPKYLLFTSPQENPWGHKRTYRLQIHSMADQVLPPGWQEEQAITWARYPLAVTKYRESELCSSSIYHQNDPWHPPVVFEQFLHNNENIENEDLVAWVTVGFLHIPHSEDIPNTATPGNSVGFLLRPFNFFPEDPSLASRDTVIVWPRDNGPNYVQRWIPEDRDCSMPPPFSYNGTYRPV
In short: as §1

Compound: CCc1nc2c(-c3cccc(S(=O)(=O)N(C)C)c3)cccc2n1C/C(F)=C/CN [Example 84, (Z)-3-(1-(4-amino-2-fluorobut-2-en-1-yl)-2-ethyl-1H-benzo[d]imidazol-4-yl)-N,N-dimethyl benzenesulfonamide hydrochloride]
- IC50 [1]: 65 nM
- IC50 [2]: 65000 nM
- IC50 [3]: > 100000 nM
- IC50 [4]: 6690 nM

Compound: NC/C=C(\F)Cn1cnc2c(-c3cccnc3)cc(C(F)(F)F)cc21 [Example 172, (Z)-3-fluoro-4-(4-(pyridin-3-yl)-6-(trifluoromethyl)-1H-benzo[d]imidazol-1-yl)but-2-en-1-amine hydrochloride]
- IC50 [1]: 311 nM
- IC50 [2]: 17800 nM
- IC50 [3]: 51600 nM
- IC50 [4]: 3520 nM

Compound: NC/C=C(\F)Cn1cnc2c(-c3cncc(F)c3)cc(C(F)(F)F)cc21 [Example 173, (Z)-3-fluoro-4-(4-(5-fluoropyridin-3-yl)-6-(trifluoromethyl)-1H-benzo[d]imidazol-1-yl)but-2-en-1-amine hydrochloride]
- IC50 [1]: 269 nM
- IC50 [2]: 15400 nM
- IC50 [3]: > 100000 nM
- IC50 [4]: 3730 nM

Compound: CNS(=O)(=O)c1cccc(-c2cccc3c2nnn3C/C(F)=C/CN)c1 [Example 111, (Z)-3-(1-(4-amino-2-fluorobut-2-en-1-yl)-1H-benzo[d][1,2,3]triazol-4-yl)-N-methylbenzenesulfonamide hydrochloride]
- IC50 [1]: 35 nM
- IC50 [2]: > 100000 nM
- IC50 [3]: > 100000 nM
- IC50 [4]: 30700 nM

Compound: NC/C=C(\F)Cn1cnc2c(-c3cccc(S(=O)(=O)N4CCCC4)c3)cc(F)cc21 [Example 7, (Z)-3-fluoro-4-(6-fluoro-4-(3-(pyrrolidin-1-ylsulfonyl)phenyl)-1H-benzo[d]imidazol-1-yl)but-2-en-1-amine hydrochloride]
- IC50 [1]: 35 nM
- IC50 [2]: 26500 nM
- IC50 [3]: > 100000 nM
- IC50 [4]: 2410 nM

Compound: Cc1cc(-c2cc(C#N)cc3c2ncn3C/C(F)=C/CN)n(C)n1 [Example 194, (Z)-1-(4-amino-2-fluorobut-2-en-1-yl)-4-(1,3-dimethyl-1H-pyrazol-5-yl)-1H-benzo[d]imidazol-6-carbonitrile hydrochloride]
- IC50 [1]: 105 nM
- IC50 [2]: 36800 nM
- IC50 [3]: > 100000 nM
- IC50 [4]: 7590 nM

Compound: NC/C=C(\F)Cn1cnc2c(-c3cncnc3)cc(C(F)(F)F)cc21 [Example 175, (Z)-3-fluoro-4-(4-(pyrimidin-5-yl)-6-(trifluoromethyl)-1H-benzo[d]imidazol-1-yl)but-2-en-1-amine hydrochloride]
- IC50 [1]: 259 nM
- IC50 [2]: > 100000 nM
- IC50 [3]: > 100000 nM
- IC50 [4]: 2580 nM

Compound: COC(=O)c1cc(-c2cccc(P(C)(C)=O)c2)c2ncn(C/C(F)=C/CN)c2c1 [Example 38, methyl (Z)-1-(4-amino-2-fluorobut-2-en-1-yl)-4-(3-(dimethylphosphoryl)phenyl)-1H-benzo[d]imidazol-6-carboxylate hydrochloride]
- IC50 [1]: 82.3 nM
- IC50 [2]: > 100000 nM
- IC50 [3]: > 100000 nM
- IC50 [4]: 44500 nM

Compound: CNS(=O)(=O)c1cccc(-c2cc(F)cc3c2ncn3C/C(F)=C/CN)c1 [Example 10, (Z)-3-(1-(4-amino-2-fluorobut-2-en-1-yl)-6-fluoro-1H-benzo[d]imidazol-4-yl)-N-methylbenzenesulfonamide hydrochloride]
- IC50 [1]: 22 nM
- IC50 [2]: 65500 nM
- IC50 [3]: > 100000 nM
- IC50 [4]: 3920 nM

Compound: CNS(=O)(=O)c1ccc(OC)c(-c2cc(C(=O)OC)cc3c2ncn3C/C(F)=C/CN)c1 [Example 24, methyl (Z)-1-(4-amino-2-fluorobut-2-en-1-yl)-4-(2-methoxy-5-(N-methylsulfamoyl)phenyl)-1H-benzo[d]imidazol-6-carboxylate hydrochloride]
- IC50 [1]: 15.9 nM
- IC50 [2]: > 100000 nM
- IC50 [3]: > 100000 nM
- IC50 [4]: 21800 nM

Compound: COc1ccc(-c2cccc3c2nnn3C/C(F)=C/CN)cc1S(=O)(=O)N(C)C [Example 102, (Z)-5-(1-(4-amino-2-fluorobut-2-en-1-yl)-1H-benzo[d][1,2,3]triazol-4-yl)-2-methoxy-N,N-dimethylbenzenesulfonamide hydrochloride]
- IC50 [1]: 17 nM
- IC50 [2]: 86600 nM
- IC50 [3]: 12400 nM
- IC50 [4]: 37400 nM

Compound: CC(=O)c1ccc(F)c(-c2cc(C(F)(F)F)cc3c2ncn3C/C(F)=C/CN)c1 [Example 169, (Z)-1-(3-(1-(4-amino-2-fluorobut-2-en-1-yl)-6-(trifluoromethyl)-1H-benzo[d]imidazol-4-yl)-4-fluorophenyl)ethan-1-one hydrochloride]
- IC50 [1]: 273 nM
- IC50 [2]: 26900 nM
- IC50 [3]: > 100000 nM
- IC50 [4]: 5400 nM

Compound: CNS(=O)(=O)c1ccc(OC)c(-c2cccc3c2nnn3C/C(F)=C/CN)c1 [Example 105, (Z)-3-(1-(4-amino-2-fluorobut-2-en-1-yl)-1H-benzo[d][1,2,3]triazol-4-yl)-4-methoxy-N-methylbenzenesulfonamide hydrochloride]
- IC50 [1]: 26 nM
- IC50 [2]: 55100 nM
- IC50 [3]: > 100000 nM
- IC50 [4]: 36000 nM

Compound: CNS(=O)(=O)c1cccc(-c2cc(C(=O)OC)cc3c2ncn3C/C(F)=C/CN)c1 [Example 30, methyl (Z)-1-(4-amino-2-fluorobut-2-en-1-yl)-4-(3-(N-methylsulfamoyl)phenyl)-1H-benzo[d]imidazol-6-carboxylate hydrochloride]
- IC50 [1]: 29.7 nM
- IC50 [2]: > 100000 nM
- IC50 [3]: > 100000 nM
- IC50 [4]: 3460 nM
